Literature values, collected in US20060177392A1, “Oil-based composition for acne” (priority 2005, published 2006).

Tests used:
[1] = taken internally
[2] = typical dose 0.5 to 2 mg/kg body weight per 24 hours; human fetal abnormalities and spontaneous abortions

Compound | Single megadose that can induce brain swelling, headache, drowsiness, vomiting, and/or death ([1]; single megadose) | Sustained dose that may be toxic ([1]; sustained doses) | Teratogenicity [2]
Vitamin A | 1,500,000 IU | over 50,000 IU | –
CC1=C(/C=C/C(C)=C/C=C/C(C)=C\C(=O)O)C(C)(C)CCC1 [Accutane, 13-cis-retinoic acid] | – | – | often teratogenic
